# From patent US4041038A, “1-(3-Phenylpropyl)-4-(beta-alkoxyacryloyl)piperazine derivatives” (Kyorin Pharmaceutical Co., Ltd., priority 1975, dated 1977)
# Key:
# [1] = 50% anesthetic dose in mice (i.v.); type: in vivo, mouse; conditions: for selectivity ratio: in vivo, read-out: LD50/AD50; for selectivity ratio / ED50: iv, mouse, i.v.; for ED50: read-out: AD50 (50% anesthetic dose)
# Excerpt: (§1) The compounds included in this invention are useful as general anesthetics.
# [2] = anesthesia, sleeping time and post-anesthetic recovery in rabbits (i.v.); type: in vivo, rabbit
# Method: In rabbits, KA-100 caused an anesthesia at the doses of more than 10 mg/kg (i.v.), and the sleeping times at 20 and 30 mg/kg were 20 min. and more than 20 min. respectively.
# (§2) Thiopental-Na caused an anesthesia lasted for 13 min. after injection of 20 mg/kg and 30 min. after 30 mg/kg.
# [3] = 50% lethal dose in rats (i.v.); conditions: in vivo, iv, rat
# Excerpt: as §1
# extension of hind legs = assay: reflex against extension of hind legs / muscular relaxation in rabbits; type: in vivo, rabbit; conditions: for muscular relaxant activity / muscular rigidity: same doses for KA-100 and thiopental-Na
# Method: as §2
# [4] = 50% anesthetic dose in rats (i.v.); type: in vivo, rat; conditions: for selectivity ratio: in vivo, read-out: LD50/AD50; for selectivity ratio / ED50: iv, rat, i.v.; for ED50: read-out: AD50 (50% anesthetic dose)
# Excerpt: as §1
# [5] = test system: withdrawal reflex against nociceptive stimuli; assay: withdrawal reflex against nociceptive stimuli (pinching of hind leg toes, small incision of abdomen) in rabbits; type: in vivo, rabbit; conditions: for anti-nociceptive activity: same doses for KA-100 and thiopental-Na
# Method: as §2
# solubility in water = type: physicochemical; conditions: maleate, nearly physiological pH (pH 6)
# [6] = disturbance of blood vessels; conditions: maleate
# [7] = 50% lethal dose in mice (i.v.); conditions: in vivo, iv, mouse
# Excerpt: as §1
smiles,measurement,setting,value
"CCOC=CC(=O)N1C[C@H](C)N(CCCc2ccccc2)C[C@H]1C.O=C(O)/C=C\C(=O)O (relative stereo) [KA-100, trans-1-(3-phenylpropyl)-2,5-dimethyl-4-(β-ethoxyacryloyl)piperazine maleate]",selectivity ratio,[1],4.9
same,ED50,[1],7.6 mg/kg
same,anesthetic effect,[1]; mice,good anesthetic effect
same,anesthetic effect,[2],good anesthetic effect
same,sleeping time / duration of anesthesia,[2]; 20 mg/kg,20 min
same,sleeping time / duration of anesthesia,[2]; 30 mg/kg,more than 20 min.
same,pharmacological potency,[2]; KA-100 and thiopental-Na compared,practically equal
same,minimal effective dose,"[2]; Oryctolagus cuniculus, iv, read-out: doses that caused an anesthesia",> 10 mg/kg
same,recovery from ataxic state in post-anesthetic period,[2]; compared with thiopental-Na,far more rapid
same,LD50,[3],60.2 mg/kg
same,reflex against extension of hind legs,extension of hind legs; more than 20 mg/kg,lost the withdrawal reflex against nociceptive stimuli (pinching of hind leg toes by a forceps or small incision of abdomen) and against extension of hind legs
same,muscular relaxant activity / muscular rigidity,extension of hind legs,muscular relaxant activity
same,selectivity ratio,[4],12.6
same,ED50,[4],4.8 mg/kg
same,anesthetic effect,[4]; rats,good anesthetic effect
same,withdrawal reflex against nociceptive stimuli,[5]; more than 20 mg/kg,lost the withdrawal reflex against nociceptive stimuli
same,anti-nociceptive activity,[5],anti-nociceptive
same,solubility in water,solubility in water,soluble in water
same,disturbance of blood vessels,[6],does not disturb blood vessels
same,LD50,[7],37.3 mg/kg
"CCCC(C)C1(CC)C(=O)NC(=S)NC1=O (stereo not drawn) [Thiopental-Na, reference compound]",selectivity ratio,[1],4.3
same,ED50,[1],20.9 mg/kg
same,sleeping time / duration of anesthesia,[2]; 20 mg/kg,13 min
same,sleeping time / duration of anesthesia,[2]; 30 mg/kg,30 min
same,LD50,[3],80.3 mg/kg
same,muscular relaxant activity / muscular rigidity,extension of hind legs,induced muscular rigidity
same,selectivity ratio,[4],7.5
same,ED50,[4],10.7 mg/kg
same,anti-nociceptive activity,[5],no anti-nociceptive effect
same,LD50,[7],90.9 mg/kg
